The values that follow come from patent publication US10487093B2, “Heterocyclic compounds, in particular 2-oxo-4,4,5,5,6,6,7,7-octahydrobenzoxazole derivatives, and their use as antibacterial compounds” (priority 2016, dated 2019).

Values after ≈ are worked out from the molar mass of the structure shown. Where only a bound is given, the exact number is not on record here.

Experiment [1] concerns Pseudomonas aeruginosa ATCC 27853. The experiment is described as follows: MIC, broth microdilution (CLSI) versus planktonic bacteria. The format is cell-based. The settings on record: ATCC27853; Pseudomonas aeruginosa ATCC 27853; 16-20 h; mode of three independent experiments; read-out: MIC, Pa ATCC 27853. (Broth dilution looks for growth in wells or tubes with falling amounts of substance.)

The test system of experiment [2] is fluoroquinolone-resistant Enterococcus faecium ATCC 700221. Described as above. The settings on record: ATCC700221, 16-20 h, mode of three independent experiments, read-out: MIC, Efm ATCC 700221. The format is cell-based.
Experiment [3] deals with human hepatic cell line (HepG2 ATCC HB-8065). The experiment is described as follows: Human cell viability assay (CellTiter-Glo). Conditions: Homo sapiens, HepG2, 24 h, read-out: IC50 (μg/mL) HepG2. Background: Cellular ATP, detected with luciferase, serves as a proxy for viable cell number.
For experiment [4], the system named is E. coli ATCC BAA-2452. The experiment is described as follows: MIC, broth microdilution (CLSI) versus planktonic bacteria. Type of experiment: cell-based. The settings on record: Escherichia coli ATCC BAA-2452; 16-20 h; mode of three independent experiments; read-out: MIC, Ec ATCC BAA 2452.
Experiment [5] concerns Escherichia coli ATCC 25922. The description is as above. The settings on record: ATCC25922; Escherichia coli ATCC 25922; 16-20 h; mode of three independent experiments; read-out: MIC, Ec ATCC 25922. Type of experiment: cell-based.
For experiment [6], the system named is Acinetobacter baumannii NCTC 13420. The experiment is described as above. Type of experiment: cell-based. Conditions: NCTC13420; Acinetobacter baumannii NCTC 13420; 16-20 h; mode of three independent experiments; read-out: MIC, Ab NCTC 13420.
Experiment [7] concerns Enterobacter cloacae NCTC 13406. Described as above. The settings on record: NCTC13406; Enterobacter cloacae NCTC 13406; 16-20 h; mode of three independent experiments; read-out: MIC, Ecl NCTC 13406. The format is cell-based.
The test system of experiment [8] is Enterococcus faecalis ATCC 29212. Described as above. The settings on record: ATCC29212, 16-20 h, mode of three independent experiments, read-out: MIC, Ef ATCC 29212. Type of experiment: cell-based.
For experiment [9], the system named is Haemophilus influenzae ATCC 49247. Described as above. The format is cell-based. The settings on record: ATCC49247; Haemophilus influenzae ATCC 49247; 16-20 h; mode of three independent experiments; read-out: MIC, Hi ATCC 49247.
Experiment [10] relates to E. coli MG1655. The experiment is described as above. Type of experiment: cell-based, Escherichia coli. The settings on record: Escherichia coli, MG1655, read-out: MIC, Ec MG1655 WT.
Experiment [11] concerns E. coli NCTC 13476. Described as above. Type of experiment: cell-based. The settings on record: NCTC13476; Escherichia coli NCTC 13476; 16-20 h; mode of three independent experiments; read-out: MIC, Ec NCTC 13476.
Experiment [12] relates to E. coli MG1655 D87G. The format is cell-based, Escherichia coli. Conditions: compared to the isogenic parent strain E. coli MG1655; D87G mutation on DNA gyrase subunit GyrA.
Experiment [13] relates to E. coli MG1655 S83L. Type of experiment: cell-based, Escherichia coli. The settings on record: compared to the isogenic parent strain E. coli MG1655; S83L mutation on DNA gyrase subunit GyrA.
The test system of experiment [14] is Staphylococcus aureus ATCC 29213. The experiment is described as follows: MIC, broth microdilution (CLSI) versus planktonic bacteria. The format is cell-based. Conditions: ATCC29213; Staphylococcus aureus ATCC 29213; 16-20 h; mode of three independent experiments; read-out: MIC, Sa ATCC 29213.
The test system of experiment [15] is Acinetobacter baumannii ATCC 19606. The description is as above. The format is cell-based. The settings on record: ATCC19606; Acinetobacter baumannii ATCC 19606; 16-20 h; mode of three independent experiments; read-out: MIC, Ab ATCC 19606.
The subject of experiment [16] is Enterococcus faecium ATCC 19434. The experiment is described as above. The format is cell-based. Conditions: ATCC19434, 16-20 h, mode of three independent experiments, read-out: MIC, Efm ATCC 19434.
Experiment [17] relates to Streptococcus pneumoniae ATCC 49619. Described as above. Type of experiment: cell-based. Conditions: ATCC49619; Streptococcus pneumoniae ATCC 49619; 16-20 h; mode of three independent experiments; read-out: MIC, Sp ATCC 49619.

With `COc1ccc2ncc(=O)n(CCNC3CCC4C(C3)OC(=O)N4c3ccc4c(n3)NC(=O)CO4)c2n1` (stereo in doubt) [Compound 43, (3aR,6R,7aR)-6-[(2-{6-methoxy-3-oxo-3H,4H-pyrido[2,3-b]pyrazin-4-yl}ethyl)amino]-3-{3-oxo-2H,3H,4H-pyrido[3,2-b][1,4]oxazin-6-yl}-octahydro-1,3-benzoxazol-2-one], the MIC in experiment [1], in [2], in experiment [4], in [5], in experiment [6] and in [7] was under 1 µg/mL each time. Besides, the MIC in experiment [8], in experiment [9], in [10], in experiment [11], in experiment [14] and in experiment [15] was under 1 µg/mL throughout. The MIC in experiment [16] and in [17] was under 1 µg/mL in each case. For the same compound, the IC50 in experiment [3] was over 100 µg/mL. The “Fold increase in MIC, E. coli MG1655 D87G” value in experiment [12] came to 0.5 fold. Besides, in [13], the “Fold increase in MIC, E. coli MG1655 S83L” value is recorded as 1 fold.

In the case of `COc1ccc2ccc(=O)n(CCN[C@H]3CC[C@H]4[C@H](C3)OC(=O)N4c3ccc4c(n3)NC(=O)CO4)c2n1` [Compound 29, 1-(2-{[(3aS,6S,7aS)-2-oxo-3-{3-oxo-2H,3H,4H-pyrido[3,2-b][1,4]oxazin-6-yl}-octahydro-1,3-benzoxazol-6-yl]amino}ethyl)-7-methoxy-1,2-dihydro-1,8-naphthyridin-2-one], the MIC in experiment [1], in experiment [2], in experiment [4], in experiment [5], in experiment [6] and in [7] was under 1 µg/mL throughout. Also, the MIC in experiment [8], in experiment [9], in experiment [10], in experiment [14], in experiment [15] and in experiment [16] was under 1 µg/mL throughout. Also, the MIC in experiment [17] is under 1 µg/mL. Moreover, the IC50 in [3] was in the range of 10 to 100 µg/mL (≈ 19.7 to 197 µM). In [12], the “Fold increase in MIC, E. coli MG1655 D87G” value came to 2 fold. Besides, the “Fold increase in MIC, E. coli MG1655 S83L” value in experiment [13] worked out at 1 fold.

Regarding `O=C1COc2ccc(N3C(=O)O[C@H]4C[C@@H](NCCn5c(=O)cnc6cc(F)c(F)cc65)CC[C@@H]43)nc2N1` [Compound 34, 1-(2-{[(3aS,6S,7aS)-2-oxo-3-{3-oxo-2H,3H,4H-pyrido[3,2-b][1,4]oxazin-6-yl}-octahydro-1,3-benzoxazol-6-yl]amino}ethyl)-6,7-difluoro-1,2-dihydroquinoxalin-2-one], the MIC in experiment [1] is 1 to 10 µg/mL (≈ 1.95 to 19.5 µM); in experiment [2], under 1 µg/mL; in experiment [4], under 1 µg/mL; in [5], under 1 µg/mL; in experiment [6] it was under 1 µg/mL; in experiment [7], under 1 µg/mL. Further, the MIC in experiment [8], in experiment [9], in experiment [10], in experiment [11], in experiment [14] and in experiment [15] was under 1 µg/mL each time. In addition, the MIC in [16] and in experiment [17] was under 1 µg/mL throughout. In addition, in experiment [12], the “Fold increase in MIC, E. coli MG1655 D87G” value is 2 fold. In addition, the “Fold increase in MIC, E. coli MG1655 S83L” value in [13] is on record as 1 fold.

`COc1cnc2ccc(=O)n(CCN[C@H]3CC[C@H]4[C@H](C3)OC(=O)N4c3ccc4c(n3)NC(=O)CO4)c2n1` [Compound 63, (3aS,6S,7aS)-6-[(2-{3-methoxy-6-oxo-5H,6H-pyrido[2,3-b]pyrazin-5-yl}ethyl)amino]-3-{3-oxo-2H,3H,4H-pyrido[3,2-b][1,4]oxazin-6-yl}-octahydro-1,3-benzoxazol-2-one]: the MIC in experiment [1], in experiment [4], in experiment [5], in experiment [6], in [7] and in experiment [8] was under 1 µg/mL each time. Also, the MIC in experiment [9], in experiment [10], in experiment [11], in experiment [14], in experiment [15] and in experiment [17] was under 1 µg/mL throughout. For the same compound, the IC50 in experiment [3] was over 100 µg/mL. In experiment [12], the “Fold increase in MIC, E. coli MG1655 D87G” value is listed as 1 fold. Besides, in experiment [13], the “Fold increase in MIC, E. coli MG1655 S83L” value was found to be 1 fold.

On to `N#Cc1cnc2ccc(=O)n(CCN[C@H]3CC[C@H]4[C@H](C3)OC(=O)N4c3ccc4c(n3)NC(=O)CS4)c2c1` [Compound 77, 5-(2-{[(3aS,6S,7aS)-2-oxo-3-{3-oxo-2H,3H,4H-pyrido[3,2-b][1,4]thiazin-6-yl}-octahydro-1,3-benzoxazol-6-yl]amino}ethyl)-6-oxo-5,6-dihydro-1,5-naphthyridine-3-carbonitrile], for which the MIC in [1] is 1 to 10 µg/mL (≈ 1.93 to 19.3 µM); in [4], under 1 µg/mL; in experiment [5], under 1 µg/mL; in experiment [6], under 1 µg/mL; in experiment [7] it was under 1 µg/mL; in [9], under 1 µg/mL. The MIC in [10], in [11], in experiment [14], in experiment [15], in [16] and in [17] was under 1 µg/mL throughout. Moreover, in experiment [3], the IC50 is over 100 µg/mL. Further, the “Fold increase in MIC, E. coli MG1655 D87G” value in [12] was 1 fold. Besides, the “Fold increase in MIC, E. coli MG1655 S83L” value in experiment [13] worked out at 1 fold.

As to `COc1cnc2ccc(=O)n(CCN[C@@H]3CC[C@@H]4[C@@H](C3)OC(=O)N4c3ccc4c(n3)NC(=O)CO4)c2n1` [Compound 87, (3aR,6R,7aR)-6-[(2-{3-methoxy-6-oxo-5H,6H-pyrido[2,3-b]pyrazin-5-yl}ethyl)amino]-3-{3-oxo-2H,3H,4H-pyrido[3,2-b][1,4]oxazin-6-yl}-octahydro-1,3-benzoxazol-2-one], the MIC in [1], in experiment [4], in experiment [5], in experiment [6], in [7] and in experiment [8] was under 1 µg/mL each time. Also, the MIC is under 1 µg/mL in experiment [9]; under 1 µg/mL in experiment [10]; under 1 µg/mL in experiment [11]; under 1 µg/mL in [14]; under 1 µg/mL in experiment [15]; 1 to 10 µg/mL (≈ 1.97 to 19.7 µM) in experiment [16]. The MIC in experiment [17] is under 1 µg/mL. The IC50 in experiment [3] lay within 10 to 100 µg/mL (≈ 19.7 to 197 µM). In experiment [12], the “Fold increase in MIC, E. coli MG1655 D87G” value came out at 2 fold. Besides, in experiment [13], the “Fold increase in MIC, E. coli MG1655 S83L” value turned out to be 2 fold.

For the compound `COc1ccc2ccc(=O)n(CCN[C@H]3CC[C@H]4[C@H](C3)OC(=O)N4c3ccc4c(n3)NC(=O)CO4)c2c1` [Compound 102, 1-(2-{[(3aS,6S,7aS)-2-oxo-3-{3-oxo-2H,3H,4H-pyrido[3,2-b][1,4]oxazin-6-yl}-octahydro-1,3-benzoxazol-6-yl]amino}ethyl)-7-methoxy-1,2-dihydroquinolin-2-one], the MIC in experiment [1] was 1 to 10 µg/mL (≈ 1.98 to 19.8 µM); in experiment [2], under 1 µg/mL; in experiment [4], under 1 µg/mL; in [5] it was under 1 µg/mL; in [6], under 1 µg/mL; in [7], under 1 µg/mL. Also, the MIC in [8], in experiment [10], in [11], in [14], in [15] and in experiment [16] was under 1 µg/mL in each case. In addition, the MIC in experiment [17] is under 1 µg/mL. For the same compound, in [3], the IC50 was 10 to 100 µg/mL (≈ 19.8 to 198 µM). Moreover, in [12], the “Fold increase in MIC, E. coli MG1655 D87G” value was 2 fold. In [13], the “Fold increase in MIC, E. coli MG1655 S83L” value is 2 fold.
